Values of other authors as cited in patent US20060094833A1, “Shock resistant cyanoacrylate compositions” (LOCTITE (R&D) LIMITED, priority 2004, published 2006).

Settings: for pKa 1: first acid group; for pKa 2: second acid group; for pKa 3: third acid group; for pKa 4: fourth

| pKa 1 | pKa 2 | pKa 3 | pKa 4 | Structure (SMILES) |
| --- | --- | --- | --- | --- |
| 2.97 | 4.34 | 4.99 | – | O=C(O)C=C(CC(=O)O)C(=O)O [1,2,3-Propene tricarboxylic acid] |
| 3.25 | 4.51 | 5.02 | 6.54 | O=C(O)CC(C(=O)O)C(CC(=O)O)C(=O)O (centres unmarked) [1,2,3,4-Butane tetracarboxylic acid] |
| 4.31 | 4.82 | 5.21 | – | O=C(O)CC(CC(=O)O)C(=O)O [1,2,3-Propane tricarboxylic acid] |

The next lines start with the compound.

| Structure (SMILES) | pKa 1 | pKa 2 | pKa 3 | pKa 4 |
| --- | --- | --- | --- | --- |
| CC(=O)C(=O)O [Pyruvic acid] | 2.65 | – | – | – |
| O=C(O)c1ccc2c(c1)C(=O)OC2=O [1,2,4-Benzene tricarboxylic anhydride] | 3.33 | – | – | – |
| O.O=C(O)c1cccc(C(=O)O)c1C(=O)O [1,2,3-Benzene tricarboxylic acid hydrate] | 2.52 | 4.00 | 6.12 | – |
| O=C(O)c1cc(C(=O)O)c(C(=O)O)cc1C(=O)O [1,2,4,5-Benzene tetracarboxylic acid] | – | 2.71 | 4.97 | 5.80 |
| O=C(O)c1ccc(C(=O)O)c(C(=O)O)c1 [1,2,4-Benzene tricarboxylic acid] | – | 3.83 | – | – |
| O=C(O)CC(O)(CC(=O)O)C(=O)O [Citric acid] | 2.93 | 4.23 | 5.09 | 16.13 |
